Assays:
[1] = Transient time and distance of aspirin solution in tubing; assay type: physicochemical; settings: 200 mg/mL in ethanol/water 50/50 vol %, start 60° C., water bath 10° C.; for Transient distance: flow rate 30 mL/min
From the text: Two different capillaries of dimensions 1000 and 1500 μm inner diameter ID were used for a test using the setup of FIG. 1 in which the evolution of temperature inside the tubing was experimentally investigated at different distances.
The transition time is defined as the time necessary to reach crystallization conditions in the used setup (i.e. time for a fluid particle flowing in the liquid to get from undersaturated conditions to nucleation conditions). Therefore, this time is at a given concentration dominated by the difference in temperature between the solubility temperature and the metastable zone width or MSZW. At temperatures below this MSZW the solute in solution starts to nucleate spontaneously. […] (both measured). The transition time is then defined as the time needed to overcome this 20° C. difference in temperature.
As a consequence, for a 1500 μm inner diameter tubing, the total tubing length necessary to conduct crystallization is a multitude of the corresponding transient distance, making any workable application impossible: about 3.5 m are necessary to overcome the solubility time; 3.5 m to reach transient distance and approximately the 4 times the transient distance is necessary to increase sufficiently the induction time. The transient distance is defined as the distance the liquid is transferred during the transient time at a given flow rate.

[2] = Cooling crystallisation of acetylsalicylic acid in ethanol/water in capillary tubing; assay type: physicochemical
[3] = 200 mg/mL 50 vol % ethanol/water, residence time 5.3 s, initial 65° C., bath 10° C., tubing ID 1000 μm, flow rate 20 mL/min, tubing length 2.5 m
[4] = test 40: 200 mg/mL ethanol/water 50/50 vol %, 3 m tubing, Tc 15° C., σ 4.5, 30 mL/min, restriction 0, average of 10 tests
[5] = test 41: 200 mg/mL ethanol/water 50/50 vol %, 3 m tubing, Tc 15° C., σ 4.5, 30 mL/min, restriction 1 of 500 μm ID, average of 10 tests
[6] = test 42: 200 mg/mL ethanol/water 50/50 vol %, 3 m tubing, Tc 15° C., σ 4.5, 30 mL/min, restriction 2 of 500 μm ID, average of 10 tests
[7] = test 43: 200 mg/mL ethanol/water 50/50 vol %, 3 m tubing, Tc 15° C., σ 4.5, 30 mL/min, restriction 1 of 250 μm ID, average of 10 tests
[8] = test 44: 200 mg/mL ethanol/water 50/50 vol %, 3 m tubing, Tc 15° C., σ 4.5, 30 mL/min, restriction 2 of 250 μm ID, average of 10 tests

Transient time ([1]; tubing 1000 μm): 1 000 ms | Transient distance ([1]; tubing 1000 μm): 1.3 m | Transient time ([1]; tubing 1500 μm): 5 700 ms | Transient distance ([1]; tubing 1500 μm): 3.5 m | Nucleation rate J ([2]; 200 mg/mL 50 vol % ethanol/water, residence time 5.3 s, initial 65° C., bath 10° C., tubing ID 750 μm, flow rate 20 mL/min, tubing length 4.2 m): 50 000 mL^−1 · s−^1 | Crystal length ([2]; 200 mg/mL 50 vol % ethanol/water, residence time 5.3 s, initial 65° C., bath 10° C., tubing ID 750 μm, flow rate 30 mL/min, tubing length 6.2 m): 285 μm | Crystal length [2, 3]: 1279 μm | Nucleation rate J [2, 3]: 1400 mL^−1 · s−^1 | Nucleation rate J ([2]; 200 mg/mL 50 vol % ethanol/water, residence time 5.3 s, initial 65° C., bath 10° C., tubing ID 1000 μm, flow rate 30 mL/min, tubing length 3.6 m): 54 000 mL^−1 · s−^1 | Nucleation rate J ([2]; 200 mg/mL 50 vol % ethanol/water, residence time 5.3 s, initial 65° C., bath 10° C., tubing ID 1000 μm, flow rate 40 mL/min, tubing length 4.7 m): 112 000 mL^−1 · s−^1 | Crystal length ([2]; 200 mg/mL 50 vol % ethanol/water, residence time 5.3 s, initial 65° C., bath 10° C., tubing ID 1500 μm, flow rate 20 mL/min, tubing length 1.2 m): No crystallization observed | Crystal length ([2]; 200 mg/mL 50 vol % ethanol/water, residence time 5.3 s, initial 65° C., bath 10° C., tubing ID 1500 μm, flow rate 30 mL/min, tubing length 1.7 m): No crystallization observed | Crystal length ([2]; 200 mg/mL 50 vol % ethanol/water, residence time 5.3 s, initial 65° C., bath 10° C., tubing ID 1500 μm, flow rate 40 mL/min, tubing length 2.2 m): No crystallization observed | Crystal depth as fraction of the width ([2]; tests 43 and 44 (250 μm inner diameter restrictions), 200 mg/mL ethanol/water 50/50): about ⅕
SMILES: CC(=O)Oc1ccccc1C(=O)O [Acetylsalicylic acid, acetylsalicylic acid]
Crystal length ([2]; test 34: 300 mg/mL ethanol-water, Tc 15° C., σ 27, Q 30 mL/min, tubing length 7 m, diameter 500 μm, 4 restrictions 1 mm long, 500 μm): Tube blocked | Crystal length ([2]; test 35: 300 mg/mL ethanol-water, Tc 10° C., σ 27, Q 30 mL/min, tubing length 6 m, diameter 750 μm, 4 restrictions 1 mm long, 500 μm): Tube blocked | Crystal length ([2]; test 36: 300 mg/mL ethanol-water, Tc 10° C., σ 27, Q 30 mL/min, tubing length 5 m, diameter 500 μm, 4 restrictions 1 mm long, 500 μm): Tube blocked | Crystal length ([2]; test 37: 300 mg/mL ethanol-water, Tc 10° C., σ 27, Q 30 mL/min, tubing length 3 m, diameter 500 μm, 4 restrictions 1 mm long, 500 μm): 800 ± 68 μm | Crystal length ([2]; test 38: 300 mg/mL ethanol-water, Tc 10° C., σ 27, Q 30 mL/min, tubing length 3 m, diameter 500 μm, 4 restrictions 1 mm long, 500 μm): 820 ± 80 μm | Crystal length ([2]; test 39: 300 mg/mL ethanol-water, Tc 10° C., σ 27, Q 30 mL/min, tubing length 3 m, diameter 500 μm, 4 restrictions 1 mm long, 500 μm): 795 ± 73 μm | Crystal length [2, 4]: 1319 ± 167 μm | Nucleation rate [2, 4]: 2300 mL⁻¹ s⁻¹ | Sphere Equivalent Diameter [2, 4]: 449 ± 74 μm | Crystal length [2, 5]: 1398 ± 100 μm | Nucleation rate [2, 5]: 1900 mL⁻¹ s⁻¹ | Sphere Equivalent Diameter [2, 5]: 490 ± 85 μm | Crystal length [2, 6]: 1049 ± 179 μm | Nucleation rate [2, 6]: 3700 mL⁻¹ s⁻¹ | Sphere Equivalent Diameter [2, 6]: 348 ± 104 μm | Crystal length [2, 7]: 962 ± 82 μm | Nucleation rate [2, 7]: 5300 mL⁻¹ s⁻¹ | Sphere Equivalent Diameter [2, 7]: 328 ± 31 μm | Crystal length [2, 8]: 393 ± 35 μm | Nucleation rate [2, 8]: 130 000 mL^−1 · s^−1 | Sphere Equivalent Diameter [2, 8]: 117 ± 20 μm

Source: patent US20210238138A1, “Method for improving nucleation of crystals from solution” (Université Libre de Bruxelles, priority 2018, published 2021)
